Results: PMC8922279, “Identification of β-Lactams Active against Mycobacterium tuberculosis by a Consortium of Pharmaceutical Companies and Academic Institutions” (ACS Infectious Diseases, 2022)

Key:
[1] = system: P. aeruginosa; assay: Microbial spectrum, P. aeruginosa; assay type: cell-based, Pseudomonas aeruginosa; conditions: clavulanate 4 μg/mL; Table S4
[2] = system: plasma proteins; assay: Plasma protein binding (equilibrium dialysis), cynomolgus monkey; conditions: 2 μM
[3] = Stability in fasted simulated intestinal fluid (FaSSIF); conditions: 10 μM, pH 6.5, room temperature
[4] = system: E. coli; assay: Microbial spectrum, E. coli; assay type: cell-based, Escherichia coli; conditions: clavulanate 4 μg/mL; Table S4
[5] = system: Caco-2 cells; assay: Caco-2 permeability / efflux transporter substrate; conditions: for Caco-2 Mean Papp A to B / Caco-2 Mean Papp B to A: 3 μM, pH 7.4, 120 min; for Caco-2 Efflux Ratio / Caco-2 Mean Recovery % A to B / Caco-2 Mean Recovery % B to A / Caco-2 Rank Papp / Efflux Transporter Substrate: Caco-2
[6] = In vitro plasma stability, cynomolgus monkey plasma; conditions: 2 μM, 37 °C, time point 120 min
[7] = In vitro plasma stability, CD-1 mouse plasma; conditions: 2 μM, 37 °C, time point 120 min
[8] = system: plasma proteins; assay: Plasma protein binding (equilibrium dialysis), human; conditions: 2 μM
[9] = system: C. albicans; assay: Microbial spectrum, C. albicans; assay type: cell-based, Candida albicans; conditions: no clavulanate; Table S4
[10] = In vitro plasma stability, beagle dog plasma; conditions: 2 μM, 37 °C, time point 120 min
[11] = In vitro plasma stability, human plasma; conditions: 2 μM, 37 °C, time point 120 min
[12] = system: Mtb H37Rv; assay: MIC90 against replicating (R) Mtb H37Rv, with or without clavulanate; assay type: cell-based, Mycobacterium tuberculosis; conditions: Table S4; for Mtb H37Rv R + CLAV (MIC90): clavulanate 4 μg/mL; for Mtb H37Rv R (MIC90): no clavulanate
[13] = Stability in simulated gastric fluid (SGF); conditions: 10 μM, pH 1.2, room temperature
[14] = system: plasma proteins; assay: Plasma protein binding (equilibrium dialysis), beagle dog; conditions: 2 μM
[15] = system: plasma proteins; assay: Plasma protein binding (equilibrium dialysis), SD rat; conditions: 2 μM
[16] = system: S. aureus; assay: Microbial spectrum, S. aureus; assay type: cell-based, Staphylococcus aureus; conditions: clavulanate 4 μg/mL; Table S4
[17] = system: plasma proteins; assay: Plasma protein binding (equilibrium dialysis), CD-1 mouse; conditions: 2 μM
[18] = In vitro plasma stability, SD rat plasma; conditions: 2 μM, 37 °C, time point 120 min
[19] = system: Mtb H37Rv; assay: MIC90 against nonreplicating (NR, 4-stress) Mtb H37Rv, with or without clavulanate; assay type: cell-based, Mycobacterium tuberculosis; conditions: 4-stress nonreplicating, Table S4; for Mtb H37Rv NR + CLAV (MIC90): clavulanate 4 μg/mL; for Mtb H37Rv NR (MIC90): no clavulanate

Cn1nnnc1SCC1=C(C(=O)O)N2C(=O)[C@@H](NC(=O)Cc3ccc(C4=NCCCN4)cc3)[C@H]2SC1 [TBBL-0000309]
P.aeruginosa R + CLAV (MIC90) [1]: > 100 µM
% bound to plasma, Cynomolgus Monkey [2]: 29.4%
FaSSIF Stability, % remaining, 6h [3]: 95.78%
FaSSIF Stability, % remaining, 24h [3]: 77.15%
E.coli R + CLAV (MIC90) [4]: 20.6 µM
Caco-2 Mean Papp A to B [5]: 0.18 10-6 cm/s
Caco-2 Mean Papp B to A [5]: 0.38 10-6 cm/s
Caco-2 Efflux Ratio [5]: 2.12
Caco-2 Mean Recovery % A to B [5]: 99.65%
Caco-2 Mean Recovery % B to A [5]: 104.93%
Caco-2 Rank Papp [5]: Low
Efflux Transporter Substrate [5]: Likely
Plasma stability % Remaining, Monkey [6]: 104.7%
Plasma stability % Remaining, Mouse [7]: 68.8%
% bound to plasma, Human [8]: 24.6%
C.albicans R (MIC90) [9]: > 100 µM
Plasma stability % Remaining, Dog [10]: 77.8%
Plasma stability % Remaining, Human [11]: 79.0%
Mtb H37Rv R + CLAV (MIC90) [12]: 0.7 µM
Mtb H37Rv R (MIC90) [12]: 29.6 µM
SGF Stability, % remaining, 1h [13]: 103.51%
SGF Stability, % remaining, 24h [13]: 60.13%
% bound to plasma, Beagle Dog [14]: 0.0%
% bound to plasma, SD Rat [15]: 38.2%
S.aureus R + CLAV (MIC90) [16]: 1.8 µM
% bound to plasma, CD-1 Mouse [17]: 4.1%
Plasma stability % Remaining, Rat [18]: 79.8%
Mtb H37Rv NR + CLAV (MIC90) [19]: > 100 µM
Mtb H37Rv NR (MIC90) [19]: > 100 µM

CCc1nnc(SCC2=C(C(=O)O)N3C(=O)[C@@H](NC(=O)Cc4ccc(C5=NCCCN5)cc4)[C@H]3SC2)s1 [TBBL-0000317]
P.aeruginosa R + CLAV (MIC90) [1]: > 100 µM
FaSSIF Stability, % remaining, 6h [3]: 94.96%
FaSSIF Stability, % remaining, 24h [3]: 90.38%
E.coli R + CLAV (MIC90) [4]: > 100 µM
Plasma stability % Remaining, Monkey [6]: 13.4%
Plasma stability % Remaining, Mouse [7]: 13.3%
C.albicans R (MIC90) [9]: > 100 µM
Plasma stability % Remaining, Dog [10]: 31.5%
Plasma stability % Remaining, Human [11]: 17.4%
Mtb H37Rv R + CLAV (MIC90) [12]: 1.1 µM
Mtb H37Rv R (MIC90) [12]: 22.3 µM
SGF Stability, % remaining, 1h [13]: 90.44%
SGF Stability, % remaining, 24h [13]: 79.32%
S.aureus R + CLAV (MIC90) [16]: 2.1 µM
Plasma stability % Remaining, Rat [18]: 2.4%
Mtb H37Rv NR + CLAV (MIC90) [19]: > 100 µM
Mtb H37Rv NR (MIC90) [19]: > 100 µM

Cn1c(SCC2=C(C(=O)O)N3C(=O)[C@@H](NC(=O)Cc4ccccc4CN)[C@H]3SC2)nnc(O)c1=O [TBBL-0000460]
P.aeruginosa R + CLAV (MIC90) [1]: > 200 µM
FaSSIF Stability, % remaining, 6h [3]: 96.2%
FaSSIF Stability, % remaining, 24h [3]: 86.61%
E.coli R + CLAV (MIC90) [4]: 13.4 µM
Caco-2 Mean Papp A to B [5]: 0.16 10-6 cm/s
Caco-2 Mean Papp B to A [5]: 0.24 10-6 cm/s
Caco-2 Efflux Ratio [5]: 1.52
Caco-2 Mean Recovery % A to B [5]: 97.79%
Caco-2 Mean Recovery % B to A [5]: 106.35%
Caco-2 Rank Papp [5]: Low
Efflux Transporter Substrate [5]: Poor or no
Plasma stability % Remaining, Monkey [6]: 25.6%
Plasma stability % Remaining, Mouse [7]: 88.8%
% bound to plasma, Human [8]: 15.9%
C.albicans R (MIC90) [9]: > 200 µM
Plasma stability % Remaining, Dog [10]: 73.7%
Plasma stability % Remaining, Human [11]: 90.4%
Mtb H37Rv R + CLAV (MIC90) [12]: 2 µM
Mtb H37Rv R (MIC90) [12]: 5.4 µM
SGF Stability, % remaining, 1h [13]: 102.88%
SGF Stability, % remaining, 24h [13]: 85.68%
% bound to plasma, Beagle Dog [14]: 0.0%
% bound to plasma, SD Rat [15]: 29.0%
S.aureus R + CLAV (MIC90) [16]: 4.6 µM
% bound to plasma, CD-1 Mouse [17]: 16.1%
Plasma stability % Remaining, Rat [18]: 92.4%
Mtb H37Rv NR + CLAV (MIC90) [19]: 85.6 µM
Mtb H37Rv NR (MIC90) [19]: 69.3 µM

CON=C(C(=O)N[C@@H]1C(=O)N2C(C(=O)O)=C(CSc3cccc[n+]3[O-])CS[C@H]12)c1csc(N)n1 [TBBL-0000539]
P.aeruginosa R + CLAV (MIC90) [1]: > 100 µM
% bound to plasma, Cynomolgus Monkey [2]: 84.3%
E.coli R + CLAV (MIC90) [4]: 13.1 µM
Caco-2 Mean Papp A to B [5]: < 0.10 10-6 cm/s
Caco-2 Mean Papp B to A [5]: 0.31 10-6 cm/s
Caco-2 Efflux Ratio [5]: > 3.03
Caco-2 Mean Recovery % A to B [5]: < 96.40%
Caco-2 Mean Recovery % B to A [5]: 105.53%
Caco-2 Rank Papp [5]: Low
Efflux Transporter Substrate [5]: Likely
Plasma stability % Remaining, Monkey [6]: 120.8%
Plasma stability % Remaining, Mouse [7]: 92.4%
% bound to plasma, Human [8]: 56.9%
C.albicans R (MIC90) [9]: > 100 µM
Plasma stability % Remaining, Dog [10]: 79.7%
Plasma stability % Remaining, Human [11]: 83.4%
Mtb H37Rv R + CLAV (MIC90) [12]: 1.9 µM
Mtb H37Rv R (MIC90) [12]: 2 µM
SGF Stability, % remaining, 1h [13]: 104.45%
SGF Stability, % remaining, 24h [13]: 90.77%
% bound to plasma, Beagle Dog [14]: 5.2%
% bound to plasma, SD Rat [15]: 61.3%
S.aureus R + CLAV (MIC90) [16]: 17.3 µM
% bound to plasma, CD-1 Mouse [17]: 20.9%
Plasma stability % Remaining, Rat [18]: 98.2%
Mtb H37Rv NR + CLAV (MIC90) [19]: 4.6 µM
Mtb H37Rv NR (MIC90) [19]: 4.7 µM
